{"source": "paper PMC6338836", "about": "“Structural basis for prodrug recognition by the SLC15 family of proton-coupled peptide transporters” (Proceedings of the National Academy of Sciences of the …, 2019)", "key": {"[1]": {"test_system": "PepTSh", "test": "IC50 competition assay, PepTSh WT proteoliposomes", "assay_type": "biochemical, Staphylococcus hominis", "conditions": "for recognition: competition with AlaAla: N- or C-terminally blocked peptides"}, "[2]": {"design": "method as in PMID 23264448, PMID 9610386", "conditions": "cited from earlier work"}, "[3]": {"test_system": "PepTSh Y41A", "test": "IC50 competition assay, PepTSh Y41A variant", "assay_type": "biochemical, Staphylococcus hominis", "conditions": "PepTSh Y41 removed (Y41A)"}, "[4]": {"test_system": "PepTSh Y163A", "test": "IC50 competition assay, PepTSh Y163A variant", "assay_type": "biochemical, Staphylococcus hominis", "conditions": "PepTSh Y163 removed (Y163A)"}, "[5]": {"test_system": "PepTSh Y41F", "test": "IC50 competition assay, PepTSh Y41F variant", "assay_type": "biochemical, Staphylococcus hominis", "conditions": "for IC50: PepTSh variant Y41F"}, "[6]": {"test_system": "PepTSh N426A", "test": "IC50 competition assay, PepTSh N426A variant", "assay_type": "biochemical, Staphylococcus hominis", "conditions": "PepTSh N426 removed (N426A)"}, "[7]": {"test_system": "PepTSh N167A", "test": "IC50 competition assay, PepTSh N167A variant", "assay_type": "biochemical, Staphylococcus hominis"}, "[8]": {"test_system": "PepTSh N426L", "test": "IC50 competition assay, PepTSh N426L variant", "assay_type": "biochemical, Staphylococcus hominis", "conditions": "PepTSh N426 replaced with leucine (N426L)"}, "[9]": {"test_system": "PepT1", "design": "method as in PMID 12649372", "conditions": "cited from earlier work"}, "[10]": {"molecular_target": "(UniProt Z9YNX0M2M8)", "test": "IC50 competition assay, PepTSh WT proteoliposomes", "assay_type": "biochemical, Staphylococcus hominis", "conditions": "competition for dipeptide uptake"}, "[11]": {"test_system": "PepTSh Y79F", "test": "IC50 competition assay, PepTSh Y79F variant", "assay_type": "biochemical, Staphylococcus hominis"}}, "note": "Residues, ends and D or L forms follow the SMILES beside them."}
{"smiles": "CC(=O)N[C@@H](C)C(=O)N[C@@H](C)C(=O)O", "note": "[Ac-AA-OH] (Ac-Ala-Ala-OH)", "values": [{"measurement": "recognition: competition with AlaAla", "setting": "[1]", "value": "can no longer bind the"}]}
{"smiles": "Nc1nc2c(ncn2COCCO)c(=O)[nH]1", "note": "[acyclovir]", "values": [{"measurement": "oral bioavailability", "setting": "[2]", "value": 15, "unit": "%"}]}
{"smiles": "C[C@H](N)C(=O)N[C@@H](C)C(N)=O", "note": "[H-AA-NH2] (H-Ala-Ala-NH2)", "values": [{"measurement": "recognition: competition with AlaAla", "setting": "[1]", "value": "can compete with AlaAla"}]}
{"smiles": "CC(C)[C@H](N)C(=O)OCCOCn1cnc2c(=O)[nH]c(N)nc21", "note": "[valacyclovir]", "values": [{"measurement": "effect of variant on affinity compared with WT", "setting": "[3]", "value": "little effect on the affinity"}, {"measurement": "effect of variant on recognition", "setting": "[4]", "value": "abrogated valacyclovir recognition"}, {"measurement": "IC50", "setting": "[5]", "value": 1300, "unit": "µM"}, {"measurement": "effect of variant on affinity compared with WT", "setting": "[6]", "value": "improved affinity"}, {"measurement": "IC50", "setting": "[1]; competition for dipeptide uptake", "value": 7400, "unit": "µM"}, {"measurement": "effect of variant on affinity / IC50 compared with WT", "setting": "[7]", "value": "little effect on the affinity"}, {"measurement": "effect of variant on affinity compared with WT", "setting": "[8]", "value": "negligible effect"}, {"measurement": "oral bioavailability", "setting": "[2]", "value": "> 50", "unit": "%"}]}
{"smiles": "NCC(=O)CCC(=O)O", "note": "[5-aminolevulinic acid]", "values": [{"measurement": "IC50", "setting": "[9]", "value": 2100, "unit": "µM"}, {"measurement": "IC50", "setting": "[10]", "value": 10400, "unit": "µM"}, {"measurement": "effect of variant on affinity / IC50 compared with WT", "setting": "[7]", "value": "unchanged"}]}
{"smiles": "C[C@H](N)C(=O)N[C@@H](C)C(=O)O", "note": "[Ala-Ala, dialanine] (H-Ala-Ala-OH)", "values": [{"measurement": "effect of variant on transport compared with WT", "setting": "[11]; PepTSh Y79F", "value": "limited effect"}, {"measurement": "IC50", "setting": "[5]", "value": 866, "unit": "µM"}]}
{"smiles": "C[C@H](N)C(=O)N[C@@H](C)C(=O)N[C@@H](C)C(=O)O", "note": "[Ala-Ala-Ala, trialanine]", "values": [{"measurement": "IC50", "setting": "[11]; PepTSh variant Y79F", "value": 5.3, "unit": "µM"}, {"measurement": "effect of variant on IC50 compared with WT", "setting": "[5]; PepTSh Y41F", "value": "no effect"}]}
